This experiment concerns the target GABAA receptor complex (GRC). The experiment can be described thus: [35S]TBPS binding assay (In Vitro Binding Assay 1). The following applies: rat cortex P2 homogenate; 2 nM [35S]TBPS; 90 min at 25° C. Here is the method: [^35S]TBPS binding assay. The cortex from male Sprague-Dawley rats (weighing 160-200 g) was removed immediately after decapitation and dissected over ice. A P2 homogenate was prepared for binding assay as previously described (Gee, Mol. Pharmacol. 30: 218-225, 1986.). The tissue was homogenized in 0.32 M sucrose (J. T. Baker Chemical Co., Phillipsburg, N.J., USA) with a Teflon-coated pestle, followed by centrifugation at 1,000×g for 10 min. The supernatant was collected and centrifuged at 9,000×g for 20 min. The resultant P2 pellet was resuspended in ice-cold 50 mM sodium potassium phosphate (J. T. Baker) buffer (pH 7.4) containing 200 mM NaCl (J. T. Baker) and used immediately in binding assays. A 2 nM concentration of [^35S]TBPS (86 Ci/mmol; New England Nuclear, Boston, Mass., USA) was incubated with 100 μl of tissue homogenate (10% w/v) in the presence or absence of 5 μM GABA (Sigma Chem. Co., St. Louis, Mo.) and 5 μl aliquots of test drug dissolved in dimethyl sulfoxide (Sigma Chem. Co.) (≦10 μl of solvent used in all assays). At the concentration (≦1%) used, dimethyl sulfoxide had no effect on specific [^35S]TBPS binding. All assays were brought to a final volume of 1 ml with 50 mM sodium potassium phosphate buffer (pH 7.4) containing 200 mM NaCl. Non-specific binding was defined as binding in the presence of 2 μM TBPS (NEN, Boston, Mass.) and accounted for ˜30% of the total binding. Assays were terminated after a 90-min steady-state incubation at 25° C. by rapid filtration through glass fiber filters (no. 32; Schleicher & Schuell, Keene, N.H.). Filter-bound radioactivity was quantified by liquid scintillation spectrophotometry. The data were evaluated by nonlinear regression (GraphPad, Inc., San Diego, Calif.) to obtain IC50 (concentration at which half-maximal inhibition of radioligand occurs) values.

pIC50: −log10 of the molar value.

Take `CCCNC(=O)C(=CNc1ccc(C)cc1)C(=O)c1ccccc1C` [2-methyl-α-[[(4-methylphenyl)amino]methylene]-β-oxo-N-propyl-benzenepropanamide]: the pIC50 (commonly the negative decadic logarithm of the IC50, by convention in mol/L) is 7.00 and the “Imax (inhibition of [^35S]TBPS binding)” value was 100%.

In the case of `CCOC(=O)C(=CNc1ccccc1Cl)C(=O)c1ccccc1Cl` [ethyl 2-chloro-α-[[(2-chlorophenyl)-amino]methylene]-β-oxobenzenepropionate], the pIC50 is 6.38 and the “Imax (inhibition of [^35S]TBPS binding)” value worked out at 100%.

Regarding `CCOC(=O)C(=CNc1ccc(C#N)cc1)C(=O)c1ccccc1Cl` [ethyl 2-chloro-α-[[(4-cyanophenyl)-amino]methylene]-β-oxobenzenepropionate], the pIC50 is 7.22 and the “Imax (inhibition of [^35S]TBPS binding)” value came to 100%.

As for `C#Cc1ccc(NC=C(C(=O)OCC)C(=O)c2ccccc2Cl)cc1` [ethyl 2-chloro-α-[[(4-ethynylphenyl)-amino]methylene]-β-oxobenzenepropionate], the pIC50 is 8.00 and the “Imax (inhibition of [^35S]TBPS binding)” value worked out at 95%.

Take `CCOC(=O)C(=CNc1ccc(I)cc1)C(=O)c1ccccc1Cl` [ethyl 2-chloro-α-[[(4-iodophenyl)-amino]methylene]-β-oxobenzenepropionate]: the pIC50 is 7.70 and the “Imax (inhibition of [^35S]TBPS binding)” value turned out to be 86%.

With `CCOC(=O)C(=CNc1ccc(F)cc1)C(=O)c1cccc2ccccc12` [ethyl α-[(4-fluorophenyl)amino]methylene]-β-oxo-1-naphthalenepropionate], the pIC50 was 6.70 and the “Imax (inhibition of [^35S]TBPS binding)” value is 81%.

On to `C#Cc1ccc(NC=C(C(=O)NCCC)C(=O)c2ccccc2C)cc1` [α-[[(4-ethynylphenyl)amino]methylene]-2-methyl-β-oxo-N-propyl-benzenepropanamide], for which the pIC50 was 7.70 and the “Imax (inhibition of [^35S]TBPS binding)” value was determined as 95%.
